Results: US9107879B1, “Methods of increasing the cytotoxicity of chemotherapeutic agents with multisubstrate inhibitors of histone, protein-lys, polyamine acetylation, and polyamine metabolism” (Vanderbilt University, priority 2010, dated 2015)

Columns and labels:
H358 cells = experiment: nucleotide excision repair assay (thymidine dimer slot blot); type: cell-based; conditions: 40 J/m2 UVC then 50 μM 1a; within 24 hours (untreated cells 50%)
Procedure: (§1) Also shown are controls for no treatment (“c” minus 1a) or treatment with 1a only (“c” plus 1a). Each lane represents 60 μg protein. […] Each lane represents 60 μg protein.
For NER, a slot blot immunoassay was used to detect the loss of thymidine dimers from the DNA of UVC treated cells as previously described. An antibody specific for cyclobutane pyrimidine dimers, the major photoproduct produced by UVC treatment, was purchased from Kamiya Biomedical Co(Seattle, Wash.; anti-thymidine dimer, clone KTM53) and used at 1:40 dilution.
DNA repair can promote cell survival following DNA damage. Nucleotide excision repair (NER), which requires histone acetylation (Cazzalini et al., 2008, 36: 1713-22) removes bulky DNA adducts such as the intrastrand guanine-adenine crosslinks caused by cisplatin or the intrastrand thymidine dimers produced by UVC radiation. We assayed NER in the presence or absence of 50 μM 1a using an immunoblot analysis of thymidine dimers in cellular DNA prepared from cells at fixed times after exposure to 40 J/m^2UVC radiation. […] The results support a model in which acetylation of the core histones, accompanied by localized relaxation of chromatin structure, may be necessary to initiate DNA repair, possibly by allowing access of DNA to multiprotein repair complex involved in nucleotide excision repair, or by promoting recruitment of those factors. […]

[1] = 5 mM, approximately 10 mg/kg, twice per week for 3 weeks
Procedure: They injected a second set of 4 mice with 100 μl of spd-3a (5 mM, approximately 10 mg/kg, or about 0.25 mM initial blood concentration), twice per week for 3 weeks.

[2] = test system: endogenous HATs associated with solubilized chromatin; conditions: literature (Bandyopadhyay et al 2009; Parello et al. 1990); cited from earlier work
γ-H2A.X in H358 cells = experiment: double strand break / gamma-H2A.X Western and co-immunoprecipitation; type: cell-based; conditions: 18 hours post-start; 1a 50 μM, 5FU 2 μM, cisplatin 2 μM, camptothecin 5 nM
Procedure: as §1
To measure DSB repair, cells were incubated for 1 hour with 10 μM camptothecin to induce DSBs, followed by incubation in the presence or absence of 50 μM 1a. At fixed times, histones were prepared by extraction in 0.2M H2SO4 as described previously and 50 μg extract was analyzed by 12% SDS-PAGE followed Western analysis as described previously, using rabbit polyclonal anti-γ-H2A.X [phosphor ser 139] (Novus Biologicals, Littleton, Colo.) or anti-H3 (Upstate Biotechnology, Inc, Lake Placid, N.Y.). Band intensities were quantitated digitally. To study acetylation of γ-H2A.X, we carried out co-immunoprecipitation analysis using 50 μg extract protein in immunoprecipitation buffer (10 mM sodium phosphate pH 7, 0.15 M NaCl, 0.1% SDS, 1% NP40, 1% sodium deoxycholate, aprotinin, 1 mM PMSF, complete protease inhibitors (Roche) using immobilized anti-acetyl-lysine (Millipore, Temecula, Calif.) in the immunoprecipitation step. The immunoprecipitated material was then analyzed as for Western analysis using anti γ-H2A.X.
Double strand breaks (DSBs) can be formed by a variety of DNA damaging agents, including camptothecin, cisplatin, 5FU, and UVC radiation (Avemann K, et al., 1988, Mol Cell Biol, 8: 3026-34; Bogdanov K V, et al. 1997, Br J Haematol, 98:869-72; Pavon M A, et al., Int J Cancer, 2008, 123:1068-79) implying that DSB repair may play a role in reducing their cellular toxicity. To examine how 1a treatment affects DSB repair in H358 cells we made use of the fact that the histone variant, H2A.X becomes phosphorylated at sites of double strand breaks (denoted γ-H2A.X), and can be detected by immunoblot analysis of acid extracted cells (Rogaku E P, et al., 1999, J Cell Biol, 146:905-16). […] Total H3 levels and H2A.X levels (control) are unaffected by these treatments (FIG. 4B). […]

DLD-1 colon cancer cells = experiment: 96-well MTS viability assay; type: cell-based; conditions: 3 days
Procedure: Cells were plated in 96-well plates at 2000 cells per well and treated with the indicated doses of spd-3a. Cell viability was measured by the MTS assay 3 days later.
DLD-1 cells or H358 cells were plated in 96-well plates at 2000 cells per well and treated with the indicated doses of (A) spm-3 or (B) spm-2. (C) Cell viability was measured by the MTS assay 3 days later. Similar experiment using GT41 fibroblasts with spm2 or spm 3. Each assay point represents an average of duplicates.

Q: For `CC(C)(COP(=O)(O)OP(=O)(O)OC[C@H]1O[C@@H](n2cnc3c(N)ncnc32)[C@H](O)[C@@H]1OP(=O)(O)O)[C@@H](O)C(=O)NCCC(=O)NCCSCC(=O)NCCCNCCCCN` [1a, spermidine[N1]-CoA], which “decrease of thymidine dimers in DNA” value (H358 cells) is on record?
A: 40%

Q: Which body weight [1] does the source give for `CC(=O)NCCSCC(=O)NCCCNCCCCN` [3a] here?
A: did not lose weight

Q: What about the signs of toxicity ([1]; 4 mice) of the same compound?
A: no signs of distress or illness

Q: What about the “inhibitory activity against endogenous HAT” value [2] of the same compound?
A: lower inhibitory effect than Spd-2a

Q: For `CC[C@@]1(O)C(=O)OCc2c1cc1n(c2=O)Cc2cc3ccccc3nc2-1` [camptothecin], which “γ-H2A.X level, single agent” value (γ-H2A.X in H358 cells) is on record?
A: weakly detectable

Q: With `CC(=O)NCCSCC(=O)NCCCNCCCCNCCCN` [spm-3] as the compound, how does the “suppression of cell growth and viability, single agent” value (DLD-1 colon cancer cells) read?
A: effective as single agents
